For assay [1], the system named is Staphylococcus aureus. In words: Antibacterial activity against Staphylococcus aureus at 100 ug/disc after 24 hr by paper disk diffusion method. Particulars: read-out: IZ. Format: functional.
The test system of assay [2] is Aspergillus niger. In words: Antifungal activity against Aspergillus niger at 100 ug/disk after 48 hr by paper disk diffusion method. The class given is functional. As to conditions: read-out: IZ.
For assay [3], the system named is Proteus vulgaris. In words: Antibacterial activity against Proteus vulgaris at 100 ug/disk after 24 hr by paper disk diffusion method. The class given is functional. Particulars: read-out: IZ. A general note: In agar diffusion tests the substance spreads into inoculated agar from a disc or well.
Assay [4] relates to Pseudomonas aeruginosa. In words: Antibacterial activity against Pseudomonas aeruginosa after 24 hr by agar streak dilution method. The class given is functional.
Assay [5] deals with Klebsiella pneumoniae. In words: Antibacterial activity against Klebsiella pneumoniae at 100 ug/disk after 24 hr by paper disk diffusion method. Format: functional. Particulars: read-out: IZ.
For assay [6], the system named is Salmonella typhi. The assay can be described thus: Antibacterial activity against Salmonella enterica subsp. enterica serovar Typhi after 24 hr by agar streak dilution method. Format: functional.
For assay [7], the system named is Klebsiella pneumoniae. The assay can be described thus: Antibacterial activity against Klebsiella pneumoniae after 24 hr by agar streak dilution method. Format: functional.
For assay [8], the system named is Staphylococcus aureus. The assay can be described thus: Antibacterial activity against Staphylococcus aureus after 24 hr by agar streak dilution method. Format: functional.
The subject of assay [9] is Salmonella typhi. In words: Antibacterial activity against Salmonella enterica subsp. enterica serovar Typhi at 100 ug/disk after 24 hr by paper disk diffusion method. The class given is functional. Particulars: read-out: IZ.
The subject of assay [10] is Shigella flexneri. In words: Antibacterial activity against Shigella flexneri at 100 ug/ml after 24 hr by agar streak dilution method. Format: functional, organism-based.
Assay [11] concerns Escherichia coli. In words: Antibacterial activity against Escherichia coli at 100 ug/disk after 24 hr by paper disk diffusion method. Format: functional. Particulars: read-out: IZ.
The subject of assay [12] is Candida albicans. In words: Antifungal activity against Candida albicans at 100 ug/disk after 48 hr by paper disk diffusion method. Format: functional. Particulars: read-out: IZ.
The subject of assay [13] is Bacillus subtilis. In words: Antibacterial activity against Bacillus subtilis at 100 ug/disk after 24 hr by paper disk diffusion method. Particulars: read-out: IZ. Format: functional.
Assay [14] has as its system Bacillus subtilis. The assay can be described thus: Antibacterial activity against Bacillus subtilis after 24 hr by agar streak dilution method. The class given is functional.
For assay [15], the system named is Aspergillus clavatus. In words: Antifungal activity against Aspergillus clavatus at 100 ug/disc after 48 hr by paper disk diffusion method. Format: functional. Particulars: read-out: IZ.
The subject of assay [16] is Aspergillus niger. In words: Antifungal activity against Aspergillus niger after 48 hr by agar streak dilution method. Format: functional.
In assay [17] the test system is Aspergillus clavatus. The assay can be described thus: Antifungal activity against Aspergillus clavatus after 48 hr by agar streak dilution method. Format: functional.
Assay [18] relates to Aspergillus fumigatus. The assay can be described thus: Antifungal activity against Aspergillus fumigatus after 48 hr by agar streak dilution method. Format: functional.
The test system of assay [19] is Escherichia coli. In words: Antibacterial activity against Escherichia coli after 24 hr by agar streak dilution method. The class given is functional.
Assay [20] relates to Candida albicans. In words: Antifungal activity against Candida albicans after 48 hr by agar streak dilution method. The class given is functional.
Assay [21] relates to Proteus vulgaris. In words: Antibacterial activity against Proteus vulgaris after 24 hr by agar streak dilution method. The class given is functional.
The subject of assay [22] is Pseudomonas aeruginosa. In words: Antibacterial activity against Pseudomonas aeruginosa at 100 ug/disk after 24 hr by paper disk diffusion method. The class given is functional. Particulars: read-out: IZ.
Assay [23] deals with Aspergillus fumigatus. In words: Antifungal activity against Aspergillus fumigatus at 100 ug/disc after 48 hr by paper disk diffusion method. The class given is functional. As to conditions: read-out: IZ.
Assay [24] relates to Candida albicans. In words: Antifungal activity against Candida albicans at 100 ug/ml after 48 hr by agar streak dilution method. The class given is functional, organism-based.
The test system of assay [25] is Klebsiella pneumoniae. In words: Antibacterial activity against Klebsiella pneumoniae at 100 ug/ml after 24 hr by agar streak dilution method. The class given is functional, organism-based.
Assay [26] deals with Shigella flexneri. The assay can be described thus: Antibacterial activity against Shigella flexneri after 24 hr by agar streak dilution method. The class given is functional.
Assay [27] deals with Shigella flexneri. The assay can be described thus: Antibacterial activity against Shigella flexneri at 100 ug/disc after 24 hr by paper disk diffusion method. Format: functional. As to conditions: read-out: IZ.
Assay [28] deals with Aspergillus fumigatus. The assay can be described thus: Antifungal activity against Aspergillus fumigatus at 100 ug/ml after 48 hr by agar streak dilution method. The class given is functional, organism-based.

Values after ≈ are worked out from the molar mass of the structure shown. Active and inactive are the calls of the source. The calls are words filed in the database; no cut-off is given here. Some results are limits rather than exact numbers.

In general, MIC refers to the lowest concentration found to suppress growth. A low value points to greater potency. For `Cc1cc(=O)oc2cc(Oc3nc(Nc4ccc(/N=C/c5ccccc5Br)cc4)nc(N(C)C)n3)ccc12`, the zone of inhibition at 100 µg/disc in the assay on Staphylococcus aureus [1] was 13 mm; with Aspergillus niger [2] it was 15 mm; in the assay with Proteus vulgaris [3], 13 mm; in the assay with Klebsiella pneumoniae [5], less than 10 mm; in the assay with Salmonella typhi [9], less than 10 mm; in the assay on Escherichia coli [11], 14 mm. In addition, the zone of inhibition at 100 µg/disc was found to be 19 mm in the assay with Candida albicans [12]; 16 mm in the assay on Bacillus subtilis [13]; 18 mm with Aspergillus clavatus [15]; 18 mm with Pseudomonas aeruginosa [22]; 20 mm with Aspergillus fumigatus [23]. In addition, the MIC with Pseudomonas aeruginosa [4] turned out to be 50 µg/mL (≈ 87.5 µM); against Salmonella typhi [6], 100 µg/mL (≈ 175 µM); with Klebsiella pneumoniae [7], 100 µg/mL (≈ 175 µM); in the assay with Staphylococcus aureus [8] it was 100 µg/mL (≈ 175 µM); against Bacillus subtilis [14] it was 50 µg/mL (≈ 87.5 µM); in the assay on Aspergillus niger [16], 100 µg/mL (≈ 175 µM). Besides, the MIC against Aspergillus clavatus [17] is 50 µg/mL (≈ 87.5 µM); in the assay on Aspergillus fumigatus [18] it was 25 µg/mL (≈ 43.7 µM); against Escherichia coli [19], 100 µg/mL (≈ 175 µM); with Candida albicans [20], 50 µg/mL (≈ 87.5 µM); against Proteus vulgaris [21] it was 100 µg/mL (≈ 175 µM). The result in the assay on Shigella flexneri [10] was inactive.

With `COc1ccc(/C=N/c2ccc(Nc3nc(Oc4ccc5c(C)cc(=O)oc5c4)nc(N(C)C)n3)cc2)cc1OC`, the zone of inhibition at 100 µg/disc was 16 mm in the assay with Staphylococcus aureus [1]; 12 mm with Aspergillus niger [2]; less than 10 mm with Proteus vulgaris [3]; 12 mm in the assay with Salmonella typhi [9]; less than 10 mm in the assay on Escherichia coli [11]; 12 mm in the assay on Bacillus subtilis [13]. Further, the zone of inhibition at 100 µg/disc is less than 10 mm in the assay on Aspergillus clavatus [15], 13 mm in the assay on Shigella flexneri [27] and 10 mm with Pseudomonas aeruginosa [22]. Moreover, the MIC was determined as 100 µg/mL (≈ 181 µM) in the assay on Pseudomonas aeruginosa [4]; 100 µg/mL (≈ 181 µM) against Salmonella typhi [6]; 50 µg/mL (≈ 90.5 µM) against Staphylococcus aureus [8]; 100 µg/mL (≈ 181 µM) against Shigella flexneri [26]; 100 µg/mL (≈ 181 µM) against Bacillus subtilis [14]; 100 µg/mL (≈ 181 µM) in the assay on Aspergillus niger [16]. For the same compound, the MIC in the assay on Aspergillus clavatus [17], in the assay on Escherichia coli [19] and in the assay with Proteus vulgaris [21] was 100 µg/mL (≈ 181 µM) in each case. Besides, the outcome with Candida albicans [24], in the assay with Klebsiella pneumoniae [25] and in the assay on Aspergillus fumigatus [28] was inactive.

Regarding `Cc1cc(=O)oc2cc(Oc3nc(Nc4ccc(N5C(=O)CSC5c5ccccc5)cc4)nc(N(C)C)n3)ccc12` (configuration not stated), the zone of inhibition at 100 µg/disc with Staphylococcus aureus [1] was 12 mm; in the assay with Aspergillus niger [2], 11 mm; in the assay with Proteus vulgaris [3], 10 mm; in the assay with Klebsiella pneumoniae [5], less than 10 mm; in the assay on Salmonella typhi [9] it was 11 mm; with Escherichia coli [11] it was 14 mm. The zone of inhibition at 100 µg/disc with Candida albicans [12] came to 10 mm; in the assay on Bacillus subtilis [13], 13 mm; in the assay on Aspergillus clavatus [15], 13 mm; with Shigella flexneri [27], 12 mm; in the assay with Pseudomonas aeruginosa [22], 15 mm. Further, the MIC with Pseudomonas aeruginosa [4], in the assay on Salmonella typhi [6], against Klebsiella pneumoniae [7], against Staphylococcus aureus [8], against Shigella flexneri [26] and in the assay with Bacillus subtilis [14] was 100 µg/mL (≈ 176 µM) in each case. Also, the MIC in the assay on Aspergillus niger [16], against Aspergillus clavatus [17], against Escherichia coli [19], with Candida albicans [20] and with Proteus vulgaris [21] was 100 µg/mL (≈ 176 µM) in each case. In the assay with Aspergillus fumigatus [28], the outcome was inactive.
